Among the test systems are LOX IMVI melanoma; RXF 393 renal; T-47D breast; TK-10 renal; UACC-257 melanoma; HCT-15 colon; SK-OV-3 ovarian; UO-31 renal.
Assay in all cases: NCI-60 cell line screen, 48 h

Values joined by “and” are separate entries in the source; they are usually repeats but may differ in a detail not shown here. Equal entries are not always repeated.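 Step 1: Grow cells in 96-well plates. Step 2: Expose to compound for 48 hours at 5 concentrations. Step 3: Interpolate endpoints linearly; if unreached, use highest concentration. The concentration for 50% growth inhibition is given as GI50. At the TGI there is no net growth.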

In the case of `COc1cccc2c1ccc1nc3cccc(C(=O)N[C@H](C)CN(C)C)c3nc12`, the GI50 in the assay with LOX IMVI melanoma is 47.4 nM; in the assay on RXF 393 renal it was 98.4 nM; in the assay on T-47D breast, 159 nM; with TK-10 renal, 76.2 nM; in the assay on UACC-257 melanoma, 160 nM; with HCT-15 colon, 53 nM. In the assay on SK-OV-3 ovarian, the GI50 is 144 nM. The TGI with LOX IMVI melanoma stood at 550 nM; in the assay with RXF 393 renal, 350 nM; in the assay with T-47D breast it was 974 nM; with TK-10 renal, 512 nM; with UACC-257 melanoma it was 659 nM; in the assay with HCT-15 colon it was 10800 nM. For the same compound, the TGI with SK-OV-3 ovarian is 1890 nM.

As to `COc1ccc(/C=C/C(=O)c2ccc(O)c(CN3CCN(c4cc5c(cc4F)c(=O)c(C(=O)O)cn5C4CC4)CC3)c2)cc1`, the GI50 in the assay on RXF 393 renal was 1420 nM; in the assay with T-47D breast, 1830 nM; in the assay with TK-10 renal, 7160 nM; in the assay with UACC-257 melanoma it was 2170 nM; with HCT-15 colon, 2220 nM; in the assay on SK-OV-3 ovarian, 2560 nM. The TGI with RXF 393 renal was 60300 nM; with T-47D breast it was > 100000 nM; in the assay with TK-10 renal, 74600 nM; in the assay on UACC-257 melanoma it was 69900 nM; with HCT-15 colon, > 100000 nM; with SK-OV-3 ovarian, 43200 nM.

For the compound `CCC(C)[C@H]1O[C@]2(C=C[C@@H]1C)C[C@@H]1C[C@@H](C/C=C(\C)[C@@H](OC3C[C@H](OC)C(O[C@H]4C[C@H](OC)[C@@H](O)[C@H](C)O4)[C@H](C)O3)[C@@H](C)/C=C/C=C3\CO[C@@H]4[C@H](O)C(C)=C[C@@H](C(=O)O1)[C@]34O)O2` (some centres not stated), the GI50 is 939 nM in the assay with RXF 393 renal; 1090 nM with T-47D breast; 1070 nM in the assay with TK-10 renal; 807 nM with UO-31 renal; 1560 nM with UACC-257 melanoma; 1720 nM in the assay on HCT-15 colon. The GI50 in the assay on SK-OV-3 ovarian is 2170 nM. Also, the TGI in the assay with RXF 393 renal came out at 3500 nM; with T-47D breast, 3580 nM; with TK-10 renal it was 2740 nM; with UO-31 renal, 1730 nM; with UACC-257 melanoma, 5740 nM; in the assay on HCT-15 colon, 6790 nM. In the assay with SK-OV-3 ovarian, this compound returned a TGI of 8230 nM.

On to `COc1cc2ccccc2oc1=O`, for which the TGI with LOX IMVI melanoma was > 100000 nM; in the assay with RXF 393 renal, 48500 nM; in the assay with T-47D breast, > 100000 nM; in the assay on TK-10 renal, > 100000 nM; in the assay on UO-31 renal it was > 100000 nM; with UACC-257 melanoma, > 100000 nM. Also, in the assay with HCT-15 colon, the TGI was > 100000 nM.

On to `COc1ccc(-c2nc(-c3ccccc3)c(-c3ccccc3)[nH]2)cc1OC1CCCC1`, for which the GI50 is 34300 nM in the assay with LOX IMVI melanoma; 8300 nM in the assay with RXF 393 renal; 34900 nM in the assay on T-47D breast; > 100000 nM in the assay on UO-31 renal; > 100000 nM in the assay with UACC-257 melanoma; 13200 nM in the assay on HCT-15 colon. Further, the GI50 with SK-OV-3 ovarian is > 100000 nM. Besides, the TGI with LOX IMVI melanoma was > 100000 nM; in the assay on RXF 393 renal, 99500 nM; with T-47D breast, > 100000 nM; with UO-31 renal, > 100000 nM; in the assay on UACC-257 melanoma it was > 100000 nM; in the assay with HCT-15 colon it was > 100000 nM. Moreover, the TGI in the assay on SK-OV-3 ovarian was > 100000 nM.

As to `CCCc1cc(=O)[nH]c(-n2nc(C)cc2C)n1`, the GI50 with LOX IMVI melanoma is 2810 nM; in the assay with RXF 393 renal, 18600 nM; with UO-31 renal, 2400 nM; in the assay on UACC-257 melanoma it was 6230 nM; with HCT-15 colon it was 1750 nM; in the assay on SK-OV-3 ovarian, 9340 nM. Further, the TGI in the assay on LOX IMVI melanoma is > 100000 nM; with RXF 393 renal it was > 100000 nM; in the assay on UO-31 renal it was > 100000 nM; in the assay with UACC-257 melanoma it was 40000 nM; in the assay with HCT-15 colon, > 100000 nM; in the assay on SK-OV-3 ovarian, > 100000 nM.

Take `CN1CCN(CCOc2ccc(-c3cnc4c(-c5ccc(C(F)(F)F)cc5)cnn4c3)cc2)CC1`: the GI50 in the assay on LOX IMVI melanoma was 1620 nM; with RXF 393 renal, 1550 nM; in the assay with TK-10 renal, 1720 nM; in the assay on UO-31 renal it was 1340 nM; in the assay on UACC-257 melanoma, 1660 nM; with HCT-15 colon it was 1020 nM. Besides, the TGI amounted to 3150 nM in the assay on LOX IMVI melanoma; 3070 nM in the assay on RXF 393 renal; 3240 nM in the assay with TK-10 renal; 2650 nM with UO-31 renal; 3340 nM with UACC-257 melanoma; 2310 nM in the assay with HCT-15 colon.

For `Cc1cc(C(=C2C=CC(=Nc3ccccc3)C=C2)c2ccc(Nc3ccccc3)cc2)ccc1N`, the GI50 in the assay on LOX IMVI melanoma is 169 nM; in the assay with RXF 393 renal, 344 nM; in the assay with T-47D breast it was 527 nM; with TK-10 renal it was 359 nM; in the assay on UO-31 renal it was 305 nM; in the assay on UACC-257 melanoma, 286 nM. Besides, the GI50 in the assay on SK-OV-3 ovarian is 1520 nM. Also, the TGI with LOX IMVI melanoma came to 310 nM; in the assay with RXF 393 renal, 1280 nM; in the assay with T-47D breast, 1930 nM; with TK-10 renal it was 1110 nM; in the assay on UO-31 renal it was 1380 nM; in the assay with UACC-257 melanoma it was 1040 nM. The compound also gave a TGI with SK-OV-3 ovarian of 2900 nM.

As for `COC1=CC(c2ccc[nH]2)=N/C1=C\c1[nH]c(C)c(C(=O)CCCCC(=O)NC(C)(C)C)c1C`, the GI50 is 1150 nM in the assay on LOX IMVI melanoma; 1660 nM with RXF 393 renal; 1390 nM in the assay with TK-10 renal; 1950 nM with UO-31 renal; 16000 nM in the assay with UACC-257 melanoma; 683 nM with HCT-15 colon. Also, the GI50 with SK-OV-3 ovarian is 9310 nM. The TGI with LOX IMVI melanoma turned out to be 2420 nM; in the assay with RXF 393 renal it was 3600 nM; in the assay with TK-10 renal it was 3410 nM; in the assay with UO-31 renal it was 6270 nM; in the assay on UACC-257 melanoma it was 35800 nM; in the assay with HCT-15 colon, 2060 nM. This compound gave a TGI with SK-OV-3 ovarian of 25500 nM.

Take `OCC(O)C(Cl)CCl` (configuration not stated): the TGI in the assay with T-47D breast, in the assay with TK-10 renal, in the assay on UO-31 renal, with UACC-257 melanoma, in the assay with HCT-15 colon and with SK-OV-3 ovarian was > 100000 nM each time.

Take `COC1/C=C/C(C)C(C(C)C(OC)C(C)CCC(=O)C(C)C(C/C=C/N(C)C=O)OC)OC(=O)/C=C/C=C(\C)CC(OC)CC2=CC(=O)O[C@H](C2)C(C)C(OC)CC(OC)/C=C/C(C)C(OC)C1` (some centres not stated): the GI50 in the assay on RXF 393 renal was 37.8 nM; in the assay on T-47D breast, 168 nM; with TK-10 renal, 17.4 nM; in the assay with UO-31 renal, 29.4 nM; with HCT-15 colon, 14.2 nM; in the assay with SK-OV-3 ovarian, 38.2 nM. Also, the TGI was 141 nM and 37.6 nM in the assay on RXF 393 renal; 488 nM in the assay with T-47D breast; 72.9 nM with TK-10 renal; 94.3 nM and 26.5 nM in the assay on UO-31 renal; 25.7 nM in the assay with UACC-257 melanoma; 270 nM and 32.9 nM with HCT-15 colon. Further, the TGI in the assay with SK-OV-3 ovarian was 229 nM and 29.7 nM.

Values taken from PubChem BioAssay (NCI).
